Experiments:
[1] = Stability of 5-azacytidine stored as an acetonitrile residue at minus 70° C.; conditions: for % of Time 0 / Mean [5-aza]: acetonitrile residue at minus 70° C.
[2] = Stability of 5-azacytidine in whole blood; conditions: for Mean [5-aza] / % of Time 0: whole blood;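 as to all read-outs here: drug level determined in plasma separated from whole blood, extracted with acetonitrile plus internal standard, then quantified by LC/MS/MS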
[3] = Stability of 5-azacytidine stored in acetonitrile/plasma mixtures at different temperatures; conditions: for % of Fresh Prep / Mean [5-aza]: acetonitrile/plasma mixture
[4] = [5-aza] 15 ng/mL, Room Temp, 15 mins
[5] = [5-aza] 15 ng/mL, Room Temp, 30 mins
[6] = [5-aza] 15 ng/mL, Room Temp, 45 mins
[7] = [5-aza] 200 ng/mL, Ice, 15 mins
[8] = [5-aza] 200 ng/mL, Ice, 30 mins
[9] = [5-aza] 200 ng/mL, Ice, 45 mins
[10] = [5-aza] 200 ng/mL, Ice, 60 mins
[11] = [5-aza] 200 ng/mL, Room Temp, 15 mins
[12] = [5-aza] 200 ng/mL, Room Temp, 30 mins
[13] = [5-aza] 200 ng/mL, Room Temp, 45 mins
[14] = [5-aza] 200 ng/mL, Room Temp, 60 mins
[15] = [5-aza] 30 ng/mL, Freeze-thaw (minus 70° C. for 4 days followed by RT for 5.5 hours)
[16] = [5-aza] 400 ng/mL, Freeze-thaw (minus 70° C. for 4 days followed by RT for 5.5 hours)

For `Nc1ncn([C@@H]2O[C@H](CO)[C@@H](O)[C@H]2O)c(=O)n1` [5-azacytidine, 4-amino-1-β-D-ribofuranosyl-1,3,5-triazin-2(1H)-one], the “time stable as acetonitrile residue” value ([1]; about minus 70° C., stable = within ±20% of freshly prepared sample) was “at least 14 months”, the “% of Time 0” value ([1]; [5-aza] 30 ng/mL, 4 Weeks) was 90.0% and the “Mean [5-aza]” value ([1]; [5-aza] 30 ng/mL, 4 Weeks) was 27.1 (N = 6) ng/mL. The “% of Time 0” value ([1]; [5-aza] 30 ng/mL, 6 Months) was 105.3%, the “Mean [5-aza]” value ([1]; [5-aza] 30 ng/mL, 6 Months) was 31.7 (N = 6) ng/mL and the “% of Time 0” value ([1]; [5-aza] 30 ng/mL, 7 Days) was 93.7%. The “Mean [5-aza]” value ([1]; [5-aza] 30 ng/mL, 7 Days) was 28.2 (N = 6) ng/mL, the “% of Time 0” value ([1]; [5-aza] 30 ng/mL, 14 Days) was 97.3% and the “Mean [5-aza]” value ([1]; [5-aza] 30 ng/mL, 14 Days) was 29.3 (N = 6) ng/mL. The “% of Time 0” value ([1]; [5-aza] 30 ng/mL, 14 Months) was 111.0%, the “Mean [5-aza]” value ([1]; [5-aza] 30 ng/mL, 14 Months) was 33.4 (N = 5) ng/mL and the “% of Time 0” value ([1]; [5-aza] 30 ng/mL, 15 Weeks) was 100.7%. The “Mean [5-aza]” value ([1]; [5-aza] 30 ng/mL, 15 Weeks) was 30.3 (N = 6) ng/mL, the “Mean [5-aza]” value ([1]; [5-aza] 30 ng/mL, Time 0) was 30.1 (N = 6) ng/mL and the “% of Time 0” value ([1]; [5-aza] 400 ng/mL, 4 Weeks) was 95.6%. The “Mean [5-aza]” value ([1]; [5-aza] 400 ng/mL, 4 Weeks) was 365 (N = 5) ng/mL, the “% of Time 0” value ([1]; [5-aza] 400 ng/mL, 6 Months) was 97.4% and the “Mean [5-aza]” value ([1]; [5-aza] 400 ng/mL, 6 Months) was 372 (N = 5) ng/mL. The “% of Time 0” value ([1]; [5-aza] 400 ng/mL, 7 Days) was 98.7%, the “Mean [5-aza]” value ([1]; [5-aza] 400 ng/mL, 7 Days) was 377 (N = 6) ng/mL and the “% of Time 0” value ([1]; [5-aza] 400 ng/mL, 14 Days) was 91.6%. The “Mean [5-aza]” value ([1]; [5-aza] 400 ng/mL, 14 Days) was 350 (N = 6) ng/mL, the “% of Time 0” value ([1]; [5-aza] 400 ng/mL, 14 Months) was 115.9% and the “Mean [5-aza]” value ([1]; [5-aza] 400 ng/mL, 14 Months) was 443 (N = 5) ng/mL. The “% of Time 0” value ([1]; [5-aza] 400 ng/mL, 15 Weeks) was 103.9%, the “Mean [5-aza]” value ([1]; [5-aza] 400 ng/mL, 15 Weeks) was 397 (N = 6) ng/mL and the “Mean [5-aza]” value ([1]; [5-aza] 400 ng/mL, Time 0) was 382 (N = 6) ng/mL. For the same compound, the “measured 5-azacytidine concentration, deviation from initial concentration in the plasma sample” value ([1]; samples prepared according to the methods, LC/MS/MS) was at most 20%, the “degradation in whole blood” value ([2]; room temperature) was “rapidly degrades” and the “degradation in whole blood” value ([2]; stored on ice, compared with room temperature) was “slightly reduced rate”. The “Mean [5-aza]” value ([2]; [5-aza] 15 ng/mL, Ice, 0 mins) was 16.1 (N = 5) ng/mL, the “% of Time 0” value ([2]; [5-aza] 15 ng/mL, Ice, 15 mins) was 80.7% and the “Mean [5-aza]” value ([2]; [5-aza] 15 ng/mL, Ice, 15 mins) was 13.0 (N = 4) ng/mL. The “% of Time 0” value ([2]; [5-aza] 15 ng/mL, Ice, 30 mins) was 77.6%, the “Mean [5-aza]” value ([2]; [5-aza] 15 ng/mL, Ice, 30 mins) was 12.5 (N = 3) ng/mL and the “% of Time 0” value ([2]; [5-aza] 15 ng/mL, Ice, 45 mins) was 70.8%. The “Mean [5-aza]” value ([2]; [5-aza] 15 ng/mL, Ice, 45 mins) was 11.4 (N = 4) ng/mL, the “% of Time 0” value ([2]; [5-aza] 15 ng/mL, Ice, 60 mins) was 71.4% and the “Mean [5-aza]” value ([2]; [5-aza] 15 ng/mL, Ice, 60 mins) was 11.5 (N = 5) ng/mL. The “Mean [5-aza]” value ([2]; [5-aza] 15 ng/mL, Room Temp, 0 mins) was 16.1 (N = 5) ng/mL, the “% of Time 0” value [2, 4] was 82.6% and the “Mean [5-aza]” value [2, 4] was 13.3 (N = 5) ng/mL. For the same compound, the “% of Time 0” value [2, 5] was 71.4%, the “Mean [5-aza]” value [2, 5] was 11.5 (N = 5) ng/mL and the “% of Time 0” value [2, 6] was 64.0%. The “Mean [5-aza]” value [2, 6] was 10.3 (N = 2) ng/mL, the “Mean [5-aza]” value ([2]; [5-aza] 200 ng/mL, Ice, 0 mins) was 152.0 (N = 5) ng/mL and the “% of Time 0” value [2, 7] was 79.6%. For the same compound, the “Mean [5-aza]” value [2, 7] was 121.0 (N = 5) ng/mL, the “% of Time 0” value [2, 8] was 73.0% and the “Mean [5-aza]” value [2, 8] was 111.0 (N = 5) ng/mL. The “% of Time 0” value [2, 9] was 72.4%, the “Mean [5-aza]” value [2, 9] was 110.0 (N = 5) ng/mL and the “% of Time 0” value [2, 10] was 57.2%. For the same compound, the “Mean [5-aza]” value [2, 10] was 87.0 (N = 5) ng/mL, the “Mean [5-aza]” value ([2]; [5-aza] 200 ng/mL, Room Temp, 0 mins) was 152.0 (N = 5) ng/mL and the “% of Time 0” value [2, 11] was 73.4%. For the same compound, the “Mean [5-aza]” value [2, 11] was 111.6 (N = 5) ng/mL, the “% of Time 0” value [2, 12] was 57.8% and the “Mean [5-aza]” value [2, 12] was 87.9 (N = 5) ng/mL. For the same compound, the “% of Time 0” value [2, 13] was 37.3%, the “Mean [5-aza]” value [2, 13] was 56.7 (N = 5) ng/mL and the “% of Time 0” value [2, 14] was 21.7%. For the same compound, the “Mean [5-aza]” value [2, 14] was 33.0 (N = 5) ng/mL, the “time stable in acetonitrile layer over plasma layer” value ([3]; about minus 70° C.) was “at least 4 days” and the “time stable in acetonitrile layer over plasma layer (acetonitrile/plasma solution)” value ([3]; about room temperature, stable = within ±20% of freshly prepared sample) was “at least 3 hours”. For the same compound, the “% of Fresh Prep” value ([3]; [5-aza] 30 ng/mL, 3 hours RT) was 98.7%, the “Mean [5-aza]” value ([3]; [5-aza] 30 ng/mL, 3 hours RT) was 29.8 (N = 6) ng/mL and the “% of Fresh Prep” value [3, 15] was 103.3%. For the same compound, the “Mean [5-aza]” value [3, 15] was 31.2 (N = 6) ng/mL, the “Mean [5-aza]” value ([3]; [5-aza] 30 ng/mL, Fresh prep.) was 30.2 (N = 6) ng/mL and the “% of Fresh Prep” value ([3]; [5-aza] 400 ng/mL, 3 hours RT) was 89.4%. For the same compound, the “Mean [5-aza]” value ([3]; [5-aza] 400 ng/mL, 3 hours RT) was 371 (N = 6) ng/mL, the “% of Fresh Prep” value [3, 16] was 88.4% and the “Mean [5-aza]” value [3, 16] was 367 (N = 6) ng/mL. For the same compound, the “Mean [5-aza]” value ([3]; [5-aza] 400 ng/mL, Fresh prep.) was 415 (N = 6) ng/mL and the “time stable in acetonitrile/plasma solution” value ([3]; minus 70° C. with one freeze-thaw cycle of 5.5 hours at room temperature, stable = within ±20% of freshly prepared sample) was “at least 4 days”.

— patent US7192781B2 (Pharmion Corporation, priority 2004, dated 2007)
